Measurements taken from patent US12552751B2, “Crystal forms A, B, C, D, E, F and G of selumetinib sulfate and preparation methods thereof” (Chunghwa Chemical Synthesis & Biotech Co. Ltd., priority 2023, dated 2026).

Tests used:
[1] = Stability of crystal forms in a constant-humidity and constant-temperature cabinet; type: physicochemical; details: for Crystal form after exposure, 80° C. and 75% RH, 1 day / Crystal form after exposure, 80° C. and 75% RH, 3 days: powder; for Crystal form stability under 80° C. and 75% RH (text summary of Table 2): time not stated
Description: The stability of crystal forms A, B, C, D, E, F and G of selumetinib sulfate was tested by placing the different crystal forms of selumetinib sulfate into a constant-humidity and constant-temperature cabinet, where the powder of each crystal form was exposed to a temperature of 80° C. and a relative humidity (RH) of 75%.

[2] = solid; cited from earlier work
[3] = cited from earlier work

## Cn1cnc2c(F)c(Nc3ccc(Br)cc3Cl)c(C(=O)NOCCO)cc21.O=S(=O)(O)O [Crystal form F, selumetinib sulfate]
[1]; listed as F
  Crystal form after exposure, 80° C. and 75% RH, 1 day: Remained F
  Crystal form after exposure, 80° C. and 75% RH, 3 days: Remained F
  Crystal form stability under 80° C. and 75% RH (text summary of Table 2): remained unchanged

## Cn1cnc2c(F)c(Nc3ccc(Br)cc3Cl)c(C(=O)NOCCO)cc21.O=S(=O)(O)O [Crystal form B, selumetinib sulfate]
[1]; listed as B
  Crystal form after exposure, 80° C. and 75% RH, 1 day: Remained B
  Crystal form after exposure, 80° C. and 75% RH, 3 days: Remained B
  Crystal form stability under 80° C. and 75% RH (text summary of Table 2): remained unchanged

## Cn1cnc2c(F)c(Nc3ccc(Br)cc3Cl)c(C(=O)NOCCO)cc21.O=S(=O)(O)O [Crystal form G, selumetinib sulfate]
[1]; listed as G
  Crystal form after exposure, 80° C. and 75% RH, 1 day: Remained G
  Crystal form after exposure, 80° C. and 75% RH, 3 days: Remained G
  Crystal form stability under 80° C. and 75% RH (text summary of Table 2): remained unchanged

## Cn1cnc2c(F)c(Nc3ccc(Br)cc3Cl)c(C(=O)NOCCO)cc21.O=S(=O)(O)O [Crystal form C, selumetinib sulfate]
[1]; listed as C
  Crystal form after exposure, 80° C. and 75% RH, 1 day: Remained C
  Crystal form after exposure, 80° C. and 75% RH, 3 days: Remained C
  Crystal form stability under 80° C. and 75% RH (text summary of Table 2): remained unchanged

## Cn1cnc2c(F)c(Nc3ccc(Br)cc3Cl)c(C(=O)NOCCO)cc21.O=S(=O)(O)O [Crystal form E, selumetinib sulfate]
[1]; listed as E
  Crystal form after exposure, 80° C. and 75% RH, 1 day: Remained E
  Crystal form after exposure, 80° C. and 75% RH, 3 days: Remained E
  Crystal form stability under 80° C. and 75% RH (text summary of Table 2): remained unchanged

## Cn1cnc2c(F)c(Nc3ccc(Br)cc3Cl)c(C(=O)NOCCO)cc21.O=S(=O)(O)O [Selumetinib sulfate]
[2]
  Hygroscopicity: non-hygroscopic
[3]; acetonitrile
  Solubility in acetonitrile: slightly soluble
[3]; ethanol
  Solubility in ethanol: slightly soluble
[3]; water
  Solubility in water: very low solubility

## Cn1cnc2c(F)c(Nc3ccc(Br)cc3Cl)c(C(=O)NOCCO)cc21.O=S(=O)(O)O [Crystal form D, selumetinib sulfate]
[1]; listed as D
  Crystal form after exposure, 80° C. and 75% RH, 1 day: Remained D
  Crystal form after exposure, 80° C. and 75% RH, 3 days: Remained D
  Crystal form stability under 80° C. and 75% RH (text summary of Table 2): remained unchanged

## Cn1cnc2c(F)c(Nc3ccc(Br)cc3Cl)c(C(=O)NOCCO)cc21.O=S(=O)(O)O [Crystal form A, selumetinib sulfate]
[1]; listed as A
  Crystal form after exposure, 80° C. and 75% RH, 1 day: A turned into C
  Crystal form after exposure, 80° C. and 75% RH, 3 days: A turned into C
[1]; listed as crystal form A
  Crystal form stability under 80° C. and 75% RH (text summary of Table 2): turned into crystal form C
